From patent US20040018560A1, “Crystallized LXR polypeptide in complex with a ligand and screening methods employing same” (priority 2002, published 2004)

B1: human LXRβ LBD (ligand binding domain) containing amino acids 214-462 (receptor)
chain: GSEGEGVQLTAAQELMIQQLVAAQLQCNKRSFSDQPKVTPWPLGADPQSRDARQQRFAHFTELAIISVQEIVDFAKQVPGFLQLGREDQIALLKASTIEIMLLETARRYNHETECITFLKDFTYSKDDFHRAGLQVEFINPIFEFSRAMRRLGLDDAEYALLIAINIFSADRPNVQEPGRVEALQQPYVEALLSYTRIKRPQDQLRFPRMLMKLVSLRTLSSVHSEQVFALRLQDKKLPPLLSEIWDVHE
notes: It is entered here as the monomer, so that self-association is the pair m1-m1; also called LXR LBD

How the values were obtained:
LXR [1] = assay: LXR activation (general statements, literature)
human LXRα LBD = molecular target: T1, human LXRα LBD (Homo sapiens, UniProt Q13133, H421A); assay: Gal4-LXRα LBD (wild type and mutant) transactivation, SPAP reporter, transient transfection in CV-1 cells; assay type: cell-based; conditions: compound 10 μM, 18 hours
T1 construct: LXRα (amino acids 164-447); expressed in transfected cells; host or cells: CV-1 cells
T1 sequence (Q13133 164-447 H421A): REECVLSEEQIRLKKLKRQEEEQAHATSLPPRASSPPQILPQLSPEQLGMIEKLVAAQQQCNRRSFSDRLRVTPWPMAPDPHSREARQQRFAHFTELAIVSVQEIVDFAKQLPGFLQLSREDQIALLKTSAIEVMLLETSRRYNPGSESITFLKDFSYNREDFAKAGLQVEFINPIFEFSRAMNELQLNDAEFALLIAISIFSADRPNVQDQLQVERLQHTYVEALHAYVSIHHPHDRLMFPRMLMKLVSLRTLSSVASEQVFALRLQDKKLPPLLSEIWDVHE
Protocol: FIG. 7A is a bar graph depicting the effect of mutating LXR LBD pocket residues on transcriptional activity, which was determined by measuring the amount of SPAP synthesized in CV-1 cells by a transiently transfected Gal4 fusion of LXRα LBD.
(§1) To explore these differences, site directed mutants were made targeting specific pocket residues that interacted more directly with one compound than the other. […] However, the gauche conformation of I317 extended into a pocket near the beta turn. […] By contrast, O3 of EPC extended into a hydrophilic pocket (see FIG. 6B) which includes residues E281 (E267α), E315 (E301α), and R319 (R305α). Mutations in this region permit identification of the necessary polar interactions for EPC binding. The transactivation capability of gal4-fusions of wild-type and mutant LXRα and LXRβ LBDs were measured by their ability to transcribe secreted placental alkaline phosphatase (SPAP) on a UAS-tk promoter in transient transfection experiments in CV-1 cells. See Laboratory Example 4. […]
(§2) Wild type and mutant LXR transactivation activity was measured in CV-1 cells. […]
(§3) Alkaline phosphatase activity was assayed by adding 200 μl substrate (7 mM p-nitrophenyl phosphate in 1 M diethanolamine/0.28 M sodium chloride/0.5 mM magnesium chloride, pH 9.85) to each well of the plates, incubating at room temperature, and reading absorbance at 405 nm. […]

human LXRβ LBD [2] = molecular target: T2, human LXRβ LBD (Homo sapiens, UniProt P55055, Y334W); assay: Gal4-LXRβ LBD (wild type and mutant) transactivation, SPAP reporter, transient transfection in CV-1 cells; assay type: cell-based; conditions: LXRβ Y335W mutant LBD, compound 10 μM, 18 hours
T2 construct: LXRβ (amino acids 155-462); expressed in transfected cells; host or cells: CV-1 cells
T2 sequence (P55055 155-460 Y334W): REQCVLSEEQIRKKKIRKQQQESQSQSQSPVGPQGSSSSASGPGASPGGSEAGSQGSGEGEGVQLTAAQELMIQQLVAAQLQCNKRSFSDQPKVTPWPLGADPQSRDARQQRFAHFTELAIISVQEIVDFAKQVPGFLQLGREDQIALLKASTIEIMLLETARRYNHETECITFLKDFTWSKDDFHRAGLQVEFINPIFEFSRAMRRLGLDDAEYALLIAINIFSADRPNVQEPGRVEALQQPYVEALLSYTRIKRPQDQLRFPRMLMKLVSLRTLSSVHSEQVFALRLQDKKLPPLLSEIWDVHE
Protocol: (§4) FIG. 7B is a bar graph depicting the effect of mutating LXR LBD pocket residues on transcriptional activity, which was determined by measuring the amount of SPAP synthesized in CV-1 cells by a transiently transfected Gal4 fusion of LXRβ LBD.
as §1, §2, §3

human LXRβ LBD [3] = molecular target: T3, human LXRβ LBD (Homo sapiens, UniProt P55055, H434A); assay: as above; assay type: cell-based; conditions: LXRβ H435A mutant LBD, compound 10 μM, 18 hours
T3 construct: LXRβ (amino acids 155-462); expressed in transfected cells; host or cells: CV-1 cells
T3 sequence (P55055 155-460 H434A): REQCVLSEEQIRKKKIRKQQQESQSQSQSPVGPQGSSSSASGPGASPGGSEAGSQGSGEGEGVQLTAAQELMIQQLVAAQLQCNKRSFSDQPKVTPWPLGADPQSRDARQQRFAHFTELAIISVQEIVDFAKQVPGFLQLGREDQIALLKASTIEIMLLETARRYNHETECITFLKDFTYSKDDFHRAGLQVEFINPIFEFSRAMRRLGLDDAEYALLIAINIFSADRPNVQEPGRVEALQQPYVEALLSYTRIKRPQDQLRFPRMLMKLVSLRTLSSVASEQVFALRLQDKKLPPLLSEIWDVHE
Protocol: as §4, §1, §2, §3

LXR [4] = assay: Ligand binding to LXR
LXR [5] = conditions: both LXR subtypes; compared with the natural ligands; cited from earlier work
LXR [6] = assay: Co-activator recruitment by LXR; assay type: biochemical
[7] = molecular target: B1; assay: X-ray co-crystal structure, LXRβ LBD with EPC and SRC1 peptide
Protocol: Crystallization trials were carried out using the hanging drop method by mixing 2 μl of protein solution with 2 μl of well buffer. Both the LXRβ/ligand complexes crystallized out of 10-12% PEG 3350-8000 with 0.2M salt at 40° C. Usable LXRβ/T0901317 crystals were obtained from a number of salts including NaF, KF, NaCl, KCl, Na formate, Na acetate, and K acetate. The best LXRβ/EPC (24(S), 25-epoxycholesterol) crystals were obtained with ammonium sulfate and lithium sulfate salts. All crystals took 4-6 weeks to grow. Crystals were frozen in LN₂ after transferring stepwise to a cryo buffer containing the well buffer with 30% PEG 400.

[8] = molecular target: the molecule itself; assay: X-ray crystal structures, homodimer in the asymmetric unit

O=S(=O)(c1ccccc1)N(CC(F)(F)F)c1ccc(C(O)(C(F)(F)F)C(F)(F)F)cc1 [T317, N-(2,2,2-trifluoroethyl)-N-[4-(2,2,2-trifluoro-1-hydroxy-1-trifluoromethyl-ethyl)-phenyl]-benzenesulfonamide]
efficacy of LXR activation (LXR [1]): efficacious | transcriptional activity (SPAP) with H421A mutant (human LXRα LBD): completely knocked out the activity | transcriptional activity (SPAP) with Y335W mutant (human LXRβ LBD [2]): some modulation | transcriptional activity (SPAP) with H435A mutant (human LXRβ LBD [3]): completely knocked out the activity | binding to LXR (LXR [4]): bound tightly | potency in activating both LXRs (LXR [5]): as potent

CC(C)CCC[C@@H](C)[C@H]1CC[C@H]2[C@@H]3CC=C4C[C@@H](O)CC[C@]4(C)[C@H]3CC[C@]12C [cholesterol]
recruitment of co-activator (LXR [6]): do not recruit co-activator | binding to LXR (LXR [4]): do bind to LXR

CPSSHSSLTERHKILHRLLQQGSPS (also called SRC1(2); SRC peptide) [SRC1 peptide (second LXXLL motif of the nuclear receptor co-activator SRC-1)]
binding result [7]: binds

B1
binding result [8]: binds
